Test [1] has as its system Plasmodium Falciparum K1 strain. Nature of the test: in vitro growth-inhibiting screening assay, chloroquine-resistant falciparum malaria. In kind it is cell-based. Particulars: for EC50: chloroquine-resistant strain, 72 h culture, 3H-hypoxanthine, read-out: 50% growth-inhibiting concentration (nM) P. falciparum K1. The protocol: Plasmodium Falciparum K1 strain was used as a chloroquine-resistant protozoa of falciparum malaria. RMI-1640 sterilized by filtration was supplemented with human serum of a final concentration of 5% to be used as a culture medium. The malaria protozoa were cultured under O2 concentration of 3%, CO2 concentration of 4%, N2 concentration of 93% at 37° C.
A test sample was prepared by dissolving the test compounds according to the present invention and a positive control drug (chloroquine) in DMSO to a predetermined concentration. The erythrocytes infected with the cultured malaria protozoa were collected by centrifugation and so diluted with non-infected erythrocytes to have an initial infection ratio of 0.15%. The hematocrit value was then 2.5%. Culture mixture of the above malaria-infection culture medium (200 μL) was placed into each well of a 96-well culture plate, and the test sample comprising the predetermined amount of the test compound, and DMSO without the test compound were added to the wells in duplicate.
After culture for 48 hours at 37° C., hypoxanthine labeled with radioactive tritium (^3H) of 0.5 μCi was added to each well. After the culture in the same conditions for further 24 hours, the sample was taken on a glass fiber filter and washed with distilled water. Intensity of radiation was measured by means of plate liquid scintillation counter (Wallac Co.), and an infection ratio of the protozoa of malaria was calculated with respect to a group treated with the test sample and the control. A growth-inhibiting ratio was then calculated from the resulting infection ratio in accordance with the following equation to determine 50% growth-inhibiting concentration (EC50).
Growth-inhibiting ratio (%)=[1−(b−a)/(c−a)]×100 • a: Initial infection ratio; • b: Infection ratio of the test sample group; and • c: Infection ratio of the control group. In vitro Growth-Inhibiting Assay of Rat L6 Cells
Anti-malaria effect of the samples was assessed by their EC50 values for the chloroquine-resistant protozoa of falciparum malaria and the rat L6 cell. A chemotherapy coefficient, which is used as an index for the selective toxicity for the chloroquine-resistant protozoa of falciparum malaria was calculated by the following equation, and the pharmaceutical effect was determined.
Chemotherapy coefficient=(EC50 value of the test sample for rat L6 cell)/(EC50 value of the test sample for the chloroquine-resistant protozoa of falciparum malaria)

Test [2] has as its system Trypanosoma cruzi (Tulahuen C2C4 strain). Briefly: in vitro growth-inhibiting screening assay, protozoa of American trypanosomiasis. In kind it is cell-based. The settings on record: for EC50: in infected rat L6 cells, 96 h, CPRG/Nonidet, read-out: 50% growth-inhibiting concentration (nM) Trypanosoma cruzi. The protocol: The test was done using a trypomastigote and an amastigote of the protozoa of Trypanosoma cruzi (Tulahuen C2C4 strain) present in the infected rat L6 cells. The L6 cells were cultured in RPMI-1640 medium supplemented with 1% of […] (200 mM) and 10% of fetal calf serum under CO2 concentration of 5%, at 37° C.
A test sample was prepared by dissolving the test compounds according to the present invention and a positive control drug (benznidazole) in DMSO to a predetermined concentration. Culture medium containing the protozoa of 5×10^3 was added into each well of 96-well culture plate and cultured for 48 hours. After the medium was exchanged, the test sample comprising the predetermined amount of the test compound, and DMSO without the test compound were added into each well in duplicate.
After incubation of the culture plate for 96 hours in an incubator, a growth-inhibiting activity was assayed as follows. CPRG/Nonidet (50 μL) was added to each well followed by a further 2˜6-hour culture. The culture plate was then attached to an absorption micro titer plate reader, the absorbance at 540 nm was detected to calculate an infection ratio of the protozoa with respect to a group treated with the test sample and a control group. A growth-inhibiting ratio was then calculated from the resulting infection ratio in accordance with the following equation to determine 50% growth-inhibiting concentration (EC50).
Growth-inhibiting ratio (%)=[1−(b−a)/(c−a)]×100 • a: Initial infection ratio; • b: Infection ratio of the test sample group; and • c: Infection ratio of the control group.
A selective toxicity coefficient, which is used as an index for the selective toxicity for the protozoa of American trypanosomiasis, was calculated by the following equation, and the pharmaceutical effect was determined.
A selective toxicity coefficient=(EC50 value of the test sample for rat L6 cell)/(EC50 value of the test sample for the protozoa of American trypanosomiasis).

The subject of test [3] is Plasmodium berghei NK65 strain. Nature of the test: in vivo 4-day suppressive test, intraperitoneal administration, mouse infected with malaria. Particulars: 4 days. The protocol:
This test was carried out in accordance with 4-day suppressive test that is a general in vivo test for the activity of an anti-malaria compound. Rodent malaria protozoa (Plasmodium berghei NK65 strain) were used in this test. Infected blood was prepared by infection with intraperitoneal administration into ICR male mouse (5 weeks age; SPF) and passage culture (subculture) thereafter. Blood was drawn from the vein of a tail of the moue infected with malaria, and its infection ratio was determined. After it was confirmed that the infection ratio had been increased up to an appropriated level (10˜20%), the blood infected with malaria was drawn from the heart of the mouse. The infection ratio and number (cells/mL) of erythrocytes were determined. An uninfected mouse (ICR male, 5 weeks age) was then infected with an injection of the infected erythrocytes so diluted with PBS as to comprise the protozoa of […] per dose (0.2 mL) into the vein of its tail.
A test sample was prepared by dissolving the test compounds according to the present invention into physiologic saline (Otsuka Pharmaceuticals Industries) to a predetermined concentration. In the case where the compound was insoluble in water, it was dissolved into DMSO or Tween 20 to prepare the test sample. A control group (no drug-administration group) was treated only with physiologic saline. […]
One group consisted of five mice. The intraperitoneal administration of the test sample started after two hours from the infection with malaria and continued for successive 4 days with a 24-hour interval. After 24 hours from the last administration, blood was drawn from the tail of the infected mouse to prepare a thin-layer smear, and the number of the erythrocytes infected with the malaria protozoa under a microscope with respect to the control group and the test sample groups. Parasitemia, i.e., the infection ratio with the malaria protozoa, was obtained by calculating an average value of the medium three mice except the two mice showing a maximum or minimum inhibition level. A cure rate (suppression) was then calculated from the resulting parasitemia in accordance with the following equation.
Cure rate: suppression (%)=(b−a)/b×100 • a: Infection ratio of the test sample group; and • b: Infection ratio of the control group.

Setting [4] is: Table 5, 2.5 mg/kg/day intraperitoneal.
The mark [5] stands for this setting: Table 5, 5.0 mg/kg/day intraperitoneal.
Setting [6] is: Table 5, 10 mg/kg/day intraperitoneal.
Where [7] appears, read: Table 5, 20 mg/kg/day intraperitoneal.

Read-outs that look alike come from different tables or passages of the source.

On to `CCN(CC)c1ccc2nc3ccc(=[N+](CC)CC)cc-3oc2c1.[Cl-]` [A-1 (60% purity)], for which the EC50 in test [1] is 4.6 nM; in test [2], 149 nM. Besides, the “Parasitaemia suppression (%)” value in test [3] (5 mg/kg/day intraperitoneal) was found to be 46.3%; in test [3] (setting [4]) it was 30.5%; in test [3] (setting [5]), 46.3%; in test [3] (setting [6]), 82.4%; in test [3] (setting [7]), 95.8%.

For `CCN(CC)c1ccc2nc3ccc(=[N+](CC)CC)cc-3oc2c1.[Cl-]` [A-1 (>95% purity)], the EC50 in test [1] came to 2.1 nM; in test [2] it was 15 nM. Moreover, the “Parasitaemia suppression (%)” value in test [3] (5 mg/kg/day intraperitoneal) was 79.2%.

For the compound `CN(C)c1ccc2nc3ccc(=[N+](C)C)cc-3oc2c1.CN(C)c1ccc2nc3ccc(=[N+](C)C)cc-3oc2c1.[Cl-].[Cl-].[Cl][Zn][Cl]` [Compound A-3], the EC50 in test [1] worked out at 15.6 nM; in test [2], 457 nM. Moreover, the “Parasitaemia suppression (%)” value in test [3] (5 mg/kg/day intraperitoneal) amounted to 17.1%.

On to `CC[N+](CC)=c1ccc2nc3ccc(N(C)C)cc3oc-2c1` [Compound A-4], for which the Selective toxicity in test [1] (EC50 rat L6 cell / EC50 P. falciparum K1) turned out to be 1200; in test [2] (EC50 rat L6 cell / EC50 protozoa of American trypanosomiasis) it was 22. Moreover, the EC50 in test [1] (Plasmodium falciparum, K1) turned out to be 2.1 nM; in test [2] (Trypanosoma cruzi, TULAHUEN) it was 211 nM. For the same compound, the “Parasitaemia suppression (%)” value is on record as 85.3% in test [3] (5 mg/kg/day intraperitoneal); 58.7% in test [3] (setting [4]); 85.3% in test [3] (setting [5]); 99.9% in test [3] (setting [6]); more than 99.99% in test [3] (setting [7]).

On to `CCCC[N+](CCCC)=c1ccc2nc3ccc(N(CC)CC)cc3oc-2c1.[Cl-]` [Compound A-6], for which the EC50 stood at 2.4 nM in test [1] and 24 nM in test [2]. In test [3] (5 mg/kg/day intraperitoneal), the “Parasitaemia suppression (%)” value is listed as 83.1%.

As for `CCCC[N+](CCCC)=c1ccc2nc3ccc(N(C)C)cc3oc-2c1.[O-][Cl+3]([O-])([O-])[O-]` [Compound A-7], the EC50 in test [1] amounted to 1.5 nM; in test [2] it was 22 nM. The “Parasitaemia suppression (%)” value in test [3] (5 mg/kg/day intraperitoneal) came to 90.3%.

The record behind these values is patent publication US20090036437A1, “PHARMACEUTICAL COMPOSITION COMPRISING PHENOXAZINIUM COMPOUND AS AN ACTIVE INGREDIENT” (priority 2005, published 2009).
